Experiments:
Assay type in all cases: in vivo
[1] = test system: Echinochloa oryzicola Vasing. (Eo); assay: Test for herbicidal effect by paddy field soil treatment (Test Example 1); conditions: application amount (active ingredient) 100 g/10 a, examined at the 21st day from the treatment, index per Table 40
Method: <Test Example 1> Test For Herbicidal Effect By Paddy Field Soil Treatment A paddy field soil was filled in a plastic pot of 100 cm^2 and subjected to puddling. Then, seeds of Echinochloa oryzicola Vasing. (Eo) were sowed and water was filled in a depth of 3 cm. Next day, wettable powders produced in accordance with the Formulation 1 were diluted with water and dropped on the water surface. The application amount of each wettable powder was 100 g per 10 ares in terms of the active ingredient. Then, breeding was made in a greenhouse, and the herbicidal effect of each wettable powder was examined at the 21st day from the treatment in accordance with the standard shown in Table 40. [table]

[2] = test system: Setaria viridis (L.) Beauv. (Se); assay: Test for herbicidal effect by upland field soil treatment (Test Example 2), Se
Method: (§1) [table] <Test Example 2> Test For Herbicidal Effect By Upland Field Soil Treatment An upland field soil was filed in a plastic pot of 80 cm^2. Seeds of Echinochloa crus-galli (L.) Beauv. var. crusgall (Ec) and Setaria viridis (L.) Beauv. (Se) were sowed, followed by covering with the same soil. Wettable powders produced in accordance with the Formulation 1 were diluted with water and sprayed uniformly: on the soil surface using a small sprayer, in an amount of 100 liters per 10 ares so that the amount of each active ingredient became 100 g per 10 ares. Then, breeding was made in a greenhouse, and the herbicidal effect of each wettable powder was examined at the 21st day from the treatment in accordance with the standard shown in Table 40.

[3] = test system: Echinochloa crus-galli (L.) Beauv. var. crusgall (Ec); assay: Test for herbicidal effect by upland field soil treatment (Test Example 2), Ec
Method: as §1

[4] = test system: Echinochloa crus-galli (L.) Beauv. var. crusgalli (Ec); assay: Test for herbicidal effect by upland foliage treatment (Test Example 3); conditions: 100 g/10 a active ingredient, examined at 14th day
Method: Test For Herbicidal Effect By Upland Foliage Treatment
An upland field soil was filed in a plastic pot of 80 cm^2. Seeds of Echinochloa crus-galli (L.) Beauv. var. crusgalli (Ec) were sowed. Breeding was made in a greenhouse for 2 weeks. Wettable powders produced in accordance with the Formulation 1 were diluted with water and sprayed on the whole foliage of plants from above the plants using a small sprayer in an amount of 100 liters per 10 ares so that the amount of each active ingredient became 100 g per 10 ares. Then, breeding was made in the greenhouse, and the herbicidal effect of each wettable powder was examined at the 14th day from the treatment in accordance with the standard shown in Table 40.

[5] = 100 g/10 a active ingredient, examined at 21st day
[6] = application amount (active ingredient) 100 g/10 a, examined at the 21st day from the treatment, index per Table 40

Row | SMILES | Herbicidal effect to Eo [1] | Herbicidal effect to Se [2, 5] | Herbicidal effect to Ec [3, 5] | Herbicidal effect to Ec [4] | Herbicidal effect to Se [2, 6] | Herbicidal effect to Ec [3, 6]
1 | CC1(C)CC(S(=O)(=O)Cc2ccc(F)c(F)c2F)=NO1 [Compound 1-507] | 5 (A herbicidal effect or phytotoxicity of 90% or more) | 5 (A herbicidal effect or phytotoxicity of 90% or more) | 5 (A herbicidal effect or phytotoxicity of 90% or more) | 4 (A herbicidal effect or phytotoxicity of 70% to less than 90%) |  | 
2 | CCC1(C)CC(S(=O)(=O)Cc2ccc(F)cc2)=NO1 (centres unmarked) [Compound 1-191] | 5 (A herbicidal effect or phytotoxicity of 90% or more) |  |  |  | 5 (A herbicidal effect or phytotoxicity of 90% or more) | 5 (A herbicidal effect or phytotoxicity of 90% or more)
3 | CS(=O)(=O)C1=NOC2(CC2)C1 [Compound 2-28] | 5 (A herbicidal effect or phytotoxicity of 90% or more) |  |  |  |  | 
4 | O=S(=O)(Cc1c(F)cccc1F)C1=NOC2CCCCCC12 (centres unmarked) [Compound 1-388] | 5 (A herbicidal effect or phytotoxicity of 90% or more) |  |  |  | 5 (A herbicidal effect or phytotoxicity of 90% or more) | 5 (A herbicidal effect or phytotoxicity of 90% or more)
5 | CC(C)OC(=O)c1cccc(Cl)c1CS(=O)(=O)C1=NOC(C)(C)C1 [Compound 1-621] | 5 (A herbicidal effect or phytotoxicity of 90% or more) | 4 (A herbicidal effect or phytotoxicity of 70% to less than 90%) | 5 (A herbicidal effect or phytotoxicity of 90% or more) |  |  | 
6 | CC1(C)CC(S(=O)(=O)Cc2ccc(F)cc2C(F)(F)F)=NO1 [Compound 1-551] | 5 (A herbicidal effect or phytotoxicity of 90% or more) | 5 (A herbicidal effect or phytotoxicity of 90% or more) | 5 (A herbicidal effect or phytotoxicity of 90% or more) |  |  | 
7 | COc1ccc(CS(=O)(=O)C2=NOC(C)(C)C2)cc1 [Compound 1-42] | 5 (A herbicidal effect or phytotoxicity of 90% or more) |  |  |  | 4 (A herbicidal effect or phytotoxicity of 70% to less than 90%) | 5 (A herbicidal effect or phytotoxicity of 90% or more)
8 | Cc1ccc(C)c(CS(=O)(=O)C2=NOC(C)(C)C2)c1C [Compound 1-616] | 5 (A herbicidal effect or phytotoxicity of 90% or more) |  | 5 (A herbicidal effect or phytotoxicity of 90% or more) | 5 (A herbicidal effect or phytotoxicity of 90% or more) |  | 
9 | CC1(C)CC(S(=O)(=O)Cc2cccc(F)c2)=NO1 [Compound 1-33] | 5 (A herbicidal effect or phytotoxicity of 90% or more) |  |  |  | 5 (A herbicidal effect or phytotoxicity of 90% or more) | 5 (A herbicidal effect or phytotoxicity of 90% or more)
10 | CC(c1ccccc1C(F)(F)F)S(=O)(=O)C1=NOC(C)(C)C1 (centres unmarked) [Compound 1-575] | 5 (A herbicidal effect or phytotoxicity of 90% or more) |  |  |  |  | 
11 | CCCCOc1cccc(F)c1CS(=O)(=O)C1=NOC(C)(C)C1 [Compound 1-571] | 5 (A herbicidal effect or phytotoxicity of 90% or more) |  | 5 (A herbicidal effect or phytotoxicity of 90% or more) | 5 (A herbicidal effect or phytotoxicity of 90% or more) |  | 
12 | CCC1(C)CC(S(=O)(=O)Cc2ccc(Cl)cc2)=NO1 (centres unmarked) [Compound 1-194] | 5 (A herbicidal effect or phytotoxicity of 90% or more) |  |  |  | 5 (A herbicidal effect or phytotoxicity of 90% or more) | 5 (A herbicidal effect or phytotoxicity of 90% or more)
13 | O=S(=O)(Cc1c(F)cccc1F)C1=NOCC1 [Compound 1-533] | 5 (A herbicidal effect or phytotoxicity of 90% or more) |  |  |  |  | 
14 | CCC1(C)CC(S(=O)(=O)Cc2c(C)ccc(C)c2C)=NO1 (centres unmarked) [Compound 1-617] | 5 (A herbicidal effect or phytotoxicity of 90% or more) | 5 (A herbicidal effect or phytotoxicity of 90% or more) | 5 (A herbicidal effect or phytotoxicity of 90% or more) |  |  | 
15 | COCC1(C)CC([S+]([O-])Cc2c(F)cccc2F)=NO1 (centres unmarked) [Compound 1-396] | 5 (A herbicidal effect or phytotoxicity of 90% or more) |  |  |  | 5 (A herbicidal effect or phytotoxicity of 90% or more) | 4 (A herbicidal effect or phytotoxicity of 70% to less than 90%)
16 | COc1cccc(CS(=O)(=O)C2=NOC(C)(C)C2)c1 [Compound 1-41] | 5 (A herbicidal effect or phytotoxicity of 90% or more) |  |  |  | 5 (A herbicidal effect or phytotoxicity of 90% or more) | 5 (A herbicidal effect or phytotoxicity of 90% or more)
17 | CCOC(=O)c1cccc(Cl)c1CS(=O)(=O)C1=NOC(C)(C)C1 [Compound 1-619] | 5 (A herbicidal effect or phytotoxicity of 90% or more) | 4 (A herbicidal effect or phytotoxicity of 70% to less than 90%) | 5 (A herbicidal effect or phytotoxicity of 90% or more) |  |  | 
18 | CCC1(C)CC(S(=O)(=O)Cc2ccccc2Br)=NO1 (centres unmarked) [Compound 1-195] | 5 (A herbicidal effect or phytotoxicity of 90% or more) |  |  |  | 5 (A herbicidal effect or phytotoxicity of 90% or more) | 5 (A herbicidal effect or phytotoxicity of 90% or more)
19 | COCC1(C)CC(S(=O)(=O)Cc2c(F)cccc2F)=NO1 (centres unmarked) [Compound 1-397] | 5 (A herbicidal effect or phytotoxicity of 90% or more) |  |  | 4 (A herbicidal effect or phytotoxicity of 70% to less than 90%) |  | 
20 | CC1(C)CC(S(=O)(=O)Cc2cc([N+](=O)[O-])cc([N+](=O)[O-])c2)=NO1 [Compound 1-546] | 5 (A herbicidal effect or phytotoxicity of 90% or more) | 4 (A herbicidal effect or phytotoxicity of 70% to less than 90%) | 5 (A herbicidal effect or phytotoxicity of 90% or more) |  |  | 
21 | O=S(=O)(Cc1c(F)cccc1F)C1=NOC2CCCCC12 (centres unmarked) [Compound 1-387] | 5 (A herbicidal effect or phytotoxicity of 90% or more) |  |  |  | 4 (A herbicidal effect or phytotoxicity of 70% to less than 90%) | 5 (A herbicidal effect or phytotoxicity of 90% or more)
22 | CCC1(C)CC(S(=O)(=O)Cc2ccccc2F)=NO1 (centres unmarked) [Compound 1-189] | 5 (A herbicidal effect or phytotoxicity of 90% or more) |  |  |  | 5 (A herbicidal effect or phytotoxicity of 90% or more) | 5 (A herbicidal effect or phytotoxicity of 90% or more)
23 | CCC1(C)CC(S(=O)(=O)Cc2ccc(C#N)cc2)=NO1 (centres unmarked) [Compound 1-329] | 5 (A herbicidal effect or phytotoxicity of 90% or more) |  |  |  | 5 (A herbicidal effect or phytotoxicity of 90% or more) | 5 (A herbicidal effect or phytotoxicity of 90% or more)
24 | Fc1cccc(F)c1CSC1=NOC2(CCC2)C1 [Compound 1-381] | 5 (A herbicidal effect or phytotoxicity of 90% or more) |  |  |  | 4 (A herbicidal effect or phytotoxicity of 70% to less than 90%) | 4 (A herbicidal effect or phytotoxicity of 70% to less than 90%)
25 | C#CCOC(=O)c1ccccc1CS(=O)(=O)C1=NOC(C)(C)C1 [Compound 1-600] | 5 (A herbicidal effect or phytotoxicity of 90% or more) |  | 5 (A herbicidal effect or phytotoxicity of 90% or more) |  |  | 
26 | COC(=O)c1cccc(Cl)c1CS(=O)(=O)C1=NOC(C)(C)C1 [Compound 1-618] | 5 (A herbicidal effect or phytotoxicity of 90% or more) | 5 (A herbicidal effect or phytotoxicity of 90% or more) | 5 (A herbicidal effect or phytotoxicity of 90% or more) |  |  | 
27 | CC12CCCCC1C(S(=O)(=O)Cc1c(F)cccc1F)=NO2 (centres unmarked) [Compound 1-493] | 5 (A herbicidal effect or phytotoxicity of 90% or more) |  |  |  | 4 (A herbicidal effect or phytotoxicity of 70% to less than 90%) | 5 (A herbicidal effect or phytotoxicity of 90% or more)
28 | CC1(C)CC(S(=O)(=O)Cc2ccc(F)cc2)=NO1 [Compound 1-34] | 5 (A herbicidal effect or phytotoxicity of 90% or more) |  |  |  | 5 (A herbicidal effect or phytotoxicity of 90% or more) | 5 (A herbicidal effect or phytotoxicity of 90% or more)

From patent US6841519B1, “Isoxazoline derivatives and herbicides containing the same as the active ingredient” (Kumiai Chemical Industry Co., Ltd., priority 1999, dated 2005)
